Test results reported in BindingDB's records for patent US12503453 (Dana-Farber Cancer Institute, 2025).

Biological target: Ubiquitin carboxyl-terminal hydrolase 7 (Homo sapiens, UniProt Q93009)
Test: Ub-AMC Enzymatic and Kinetic Assays
Method: Full length USP7 was tested for its activity in Ubiquitin-AMC assay in presence or absence of inhibitors. USP7 (5 nM) was pre-incubated for 6 hours at room temperature with different concentrations of inhibitors or DMSO as a control in 50 mM HEPES pH 7.5, 0.5 mM EDTA, 11 μM ovalbumin, and 5 mM DTT. Ubiquitin-AMC (Boston Biochem) was then added to a final concentration of 500 nM. The initial rate of the reaction was measured by collecting fluorescence data at one minute intervals over 30-minute period using a Clariostar fluorescence plate reader at excitation and emission wavelength of 345 and 445 nm respectively. The calculated initial rate values were plotted against inhibitor concentrations to determine IC50s. All the experimental data were plotted using Prism GraphPad. All assays for each compound were performed at least twice for each compound.

Ubiquitin carboxyl-terminal hydrolase 7, sequence (Q93009 whole entry): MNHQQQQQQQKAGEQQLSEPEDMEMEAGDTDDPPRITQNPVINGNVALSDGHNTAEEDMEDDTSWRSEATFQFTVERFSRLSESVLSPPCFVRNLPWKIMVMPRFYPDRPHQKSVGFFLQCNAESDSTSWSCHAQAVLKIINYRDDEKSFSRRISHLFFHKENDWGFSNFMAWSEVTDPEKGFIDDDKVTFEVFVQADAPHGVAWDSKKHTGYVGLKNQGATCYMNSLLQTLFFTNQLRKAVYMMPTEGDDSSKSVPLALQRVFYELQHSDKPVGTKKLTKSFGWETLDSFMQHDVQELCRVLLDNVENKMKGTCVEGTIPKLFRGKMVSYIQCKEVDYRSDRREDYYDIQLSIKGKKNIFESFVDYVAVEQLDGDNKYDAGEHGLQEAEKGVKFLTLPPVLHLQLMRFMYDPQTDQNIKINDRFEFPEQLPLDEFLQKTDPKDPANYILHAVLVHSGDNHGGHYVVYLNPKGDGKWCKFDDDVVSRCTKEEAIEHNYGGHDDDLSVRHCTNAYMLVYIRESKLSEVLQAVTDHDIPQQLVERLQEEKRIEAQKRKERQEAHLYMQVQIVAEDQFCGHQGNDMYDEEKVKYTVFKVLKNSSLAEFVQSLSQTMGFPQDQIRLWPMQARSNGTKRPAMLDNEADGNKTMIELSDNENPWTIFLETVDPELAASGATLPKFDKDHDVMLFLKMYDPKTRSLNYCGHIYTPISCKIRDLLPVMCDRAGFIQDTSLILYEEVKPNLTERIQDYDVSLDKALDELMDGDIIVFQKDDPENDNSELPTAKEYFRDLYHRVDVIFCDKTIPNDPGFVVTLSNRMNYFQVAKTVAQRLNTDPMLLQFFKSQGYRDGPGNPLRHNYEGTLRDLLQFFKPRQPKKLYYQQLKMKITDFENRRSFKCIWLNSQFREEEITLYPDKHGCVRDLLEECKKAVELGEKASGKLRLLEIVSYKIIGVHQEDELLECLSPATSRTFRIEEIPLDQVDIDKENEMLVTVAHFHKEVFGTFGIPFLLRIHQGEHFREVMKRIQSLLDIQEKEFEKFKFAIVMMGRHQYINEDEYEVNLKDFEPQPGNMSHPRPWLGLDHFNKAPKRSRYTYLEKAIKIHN

IC50: > 1 µM
SMILES: CN1CCN(CCC(=O)Nc2ccc3c(=O)n(CC4(O)CCN(C(=O)C(CCCNC(=O)C5CCN(C#N)C5)Cc5ccccc5)CC4)cnc3c2)CC1 (stereo unspecified) [US12503453, Compound Table1.19]
